# Results reported in patent US8063071B2 (GlaxoSmithKline, LLC, priority 2007, dated 2011).
# Where a name gives a salt, the structure may show the parent alone.
# Key:
# [1] = molecular target: T1, Recombinant human IKKβ (residues 1-737) (Homo sapiens, UniProt O14920); test: IKK2 assay (TR-FRET); format: biochemical; details: ATP 1 μM final, read-out: pIC50 against IKK2 (converted)
# T1 construct: Recombinant human IKKβ (residues 1-737); GST (C); made in house
# T1 sequence (O14920 1-737): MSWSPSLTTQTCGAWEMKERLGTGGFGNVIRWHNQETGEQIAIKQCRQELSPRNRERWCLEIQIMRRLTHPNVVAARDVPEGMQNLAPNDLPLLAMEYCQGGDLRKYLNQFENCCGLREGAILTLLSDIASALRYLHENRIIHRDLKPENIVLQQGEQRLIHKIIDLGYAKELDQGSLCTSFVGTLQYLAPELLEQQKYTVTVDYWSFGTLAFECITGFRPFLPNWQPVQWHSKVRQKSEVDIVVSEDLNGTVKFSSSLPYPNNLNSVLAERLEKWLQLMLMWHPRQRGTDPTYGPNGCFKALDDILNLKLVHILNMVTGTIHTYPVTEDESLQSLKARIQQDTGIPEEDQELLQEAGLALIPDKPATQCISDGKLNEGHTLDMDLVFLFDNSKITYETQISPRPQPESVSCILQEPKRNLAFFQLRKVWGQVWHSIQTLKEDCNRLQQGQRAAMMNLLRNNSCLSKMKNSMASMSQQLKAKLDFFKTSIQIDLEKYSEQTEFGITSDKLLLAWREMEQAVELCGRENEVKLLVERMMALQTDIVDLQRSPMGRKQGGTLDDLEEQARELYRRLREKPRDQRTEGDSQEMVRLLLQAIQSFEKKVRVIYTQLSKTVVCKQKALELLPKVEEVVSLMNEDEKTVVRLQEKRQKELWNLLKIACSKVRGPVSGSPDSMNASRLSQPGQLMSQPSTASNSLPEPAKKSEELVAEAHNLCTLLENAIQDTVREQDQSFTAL
# In short: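 TR-FRET readout (665 nm over 620 nm Eu reference) of GST-IB Ser32/36 phosphorylation after 60 min detection. Reaction: 1 μM ATP, 25 nM substrate, 0.5-5 nM GST-fused IKKβ 1-737 from baculovirus, pH 7.4 HEPES buffer, 1.7% DMSO, 15 min room temperature, EDTA-terminated.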
# [2] = test system: human monocyte stimulated cytokine production (TNF-α); test: Monocyte assay (LPS-stimulated TNF-α production); format: cell-based; details: for inhibition at 0.3 µM: read-out: inhibition at 300 nM in the monocyte assay; for IC50: 24 h, 200 ng/mL LPS, TNF-α by ELISA
# In short: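 TNF-α release was measured by ELISA after 24 hrs at 37 C. Cells were stimulated with 200 ng/mL E. coli LPS, with compound added 30 minutes beforehand (0.1% DMSO vehicle). Cells were Ficoll/MACS-isolated CD14+ human monocytes adhered at 1×10^6 cells/mL, and viability was checked by trypan blue.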
IC50 [1] [µM],IC50 [2] [µM],SMILES,inhibition at 0.3 µM [2] [%]
≤ 10,,"CCS(=O)(=O)N1CCC(c2c[nH]c3c(C(N)=O)cc(-c4csc(CN(C)Cc5ccncn5)c4)cc23)CC1 [Example 85, 3-[1-(ethylsulfonyl)-4-piperidinyl]-5-(5-{[methyl(4-pyrimidinylmethyl)amino]methyl}-3-thienyl)-1H-indole-7-carboxamide trifluoroacetate]",0 to 60
≤ 10,≤ 1.5,"CCS(=O)(=O)N1CCC(c2c[nH]c3c(C(N)=O)cc(-c4cccc(CN5CCOCC5)c4)cc23)CC1 [Example 3, 3-[1-(ethylsulfonyl)-4-piperidinyl]-5-[3-(4-morpholinylmethyl)phenyl]-1H-indole-7-carboxamide]",
≤ 10,> 1,"CCS(=O)(=O)N1CCC(c2c[nH]c3c(C(N)=O)cc(-c4ccc(CNC5CCCC5)cc4)cc23)CC1 [Example 143, 5-{4-[(cyclopentylamino)methyl]phenyl}-3-[1-(ethylsulfonyl)-4-piperidinyl]-1H-indole-7-carboxamide trifluoroacetate]",
≤ 10,,"CCCC(C)NCc1ccc(-c2cc(C(N)=O)c3[nH]cc(C4CCN(S(=O)(=O)CC)CC4)c3c2)s1 (stereo not shown) [Example 186, 3-[1-(ethylsulfonyl)-4-piperidinyl]-5-(5-{[(1-methylbutyl)amino]methyl}-2-thienyl)-1H-indole-7-carboxamide]",0 to 60
≤ 10,,"CCS(=O)(=O)N1CCC(c2c[nH]c3c(C(N)=O)cc(-c4cncc(CNCC(C)(C)C)c4)cc23)CC1 [Example 181, 5-(5-{[(2,2-dimethylpropyl)amino]methyl}-3-pyridinyl)-3-[1-(ethylsulfonyl)-4-piperidinyl]-1H-indole-7-carboxamide]",0 to 60
≤ 10,≤ 1.5,"CCS(=O)(=O)N1CCC(c2c[nH]c3c(C(N)=O)cc(-c4cccc(N)n4)cc23)CC1 [Example 163, 5-(6-amino-2-pyridinyl)-3-[1-(ethylsulfonyl)-4-piperidinyl]-1H-indole-7-carboxamide trifluoroacetate]",

# The next lines start with the compound.
SMILES,IC50 [1] [µM],IC50 [2] [µM],inhibition at 0.3 µM [2] [%]
"CCS(=O)(=O)N1CCC(c2c[nH]c3c(C(N)=O)cc(-c4cccc(CNCc5cccs5)c4)cc23)CC1 [Example 304, 3-[1-(ethylsulfonyl)-4-piperidinyl]-5-(3-{[(2-thienylmethyl)amino]methyl}phenyl)-1H-indole-7-carboxamide trifluoroacetate]",≤ 10,≤ 1.5,
"CCS(=O)(=O)N1CCC(c2c[nH]c3c(C(N)=O)cc(-c4csc(CN(C)C5CCCC5)c4)cc23)CC1 [Example 71, 5-(5-{[cyclopentyl(methyl)amino]methyl}-3-thienyl)-3-[1-(ethylsulfonyl)-4-piperidinyl]-1H-indole-7-carboxamide trifluoroacetate]",≤ 10,≤ 1.5,
"CCS(=O)(=O)N1CCC(c2c[nH]c3c(C(N)=O)cc(-c4csc(CN(C)CCc5ccccn5)c4)cc23)CC1 [Example 76, 3-[1-(ethylsulfonyl)-4-piperidinyl]-5-[5-({methyl[2-(2-pyridinyl)ethyl]amino}methyl)-3-thienyl]-1H-indole-7-carboxamide trifluoroacetate]",≤ 10,≤ 1.5,
"CCS(=O)(=O)N1CCC(c2c[nH]c3c(C(N)=O)cc(-c4cc(CN5CCOCC5)ccc4F)cc23)CC1 [Example 341, 3-[1-(ethylsulfonyl)-4-piperidinyl]-5-[2-fluoro-5-(4-morpholinylmethyl)phenyl]-1H-indole-7-carboxamide trifluoroacetate]",≤ 10,> 1,
"CCS(=O)(=O)N1CCC(c2c[nH]c3c(C(N)=O)cc(-c4cccc(C5CNCCN5)c4)cc23)CC1 (stereo not shown) [Example 300, 3-[1-(ethylsulfonyl)-4-piperidinyl]-5-[3-(2-piperazinyl)phenyl]-1H-indole-7-carboxamide trifluoroacetate]",≤ 10,> 1,
